Measured values from patent US20230114627A1, “COMPOSITION COMPRISING A METAL ASCORBO-CAMPHORATE COMPOUND AND METHOD FOR PREVENTION AND/OR TREATMENT OF PAPILLOMAVIRUS INFECTIONS” (MGB PHARMA Inc., priority 2020, published 2023).
Read-outs that look alike come from different tables or passages of the source.

How the values were obtained:
[1] = test system: HEC-1A; experiment: Transepithelial electrical resistance (TEER) of HEC-1A monostratified epithelium; assay type: cell-based; conditions: up to 500 μM, 24 hours
[2] = test system: human diploid MRC5 cells; experiment: MTT cytotoxicity assay on MRC5 cells; assay type: cell-based
Procedure: (§1) The cytotoxicity study was conducted on three types of cells: on Vero cells, on human diploid MRC5 cells (human fibroblast and embryonic type), and on Cos-7 cells. […] The latter forms crystals with the highly metabolic living cells.
The absorbance at 490 nm of the dissolved crystals corresponds to the number of living cells.
In a second series of tests, the cytotoxicity of said ascorbo-camphorate on MRC5 cells was tested with the solutions at dilution ratios ranging from 0 to 100 millionths.

[3] = test system: VLP-16 pseudovirions of the HPV-16 virus; conditions: for inhibitory concentration 50 (IC50) / IC50: estimated; for IC50: read-out: inhibitory concentration 50 (IC50)
Procedure: This experiment provides the data and analysis of an in vitro “AC” experimental treatment against the HPV-16 papillomavirus which was carried out by neutralizing the entry of viral pseudo particles (VLP-16) of the HPV-16 virus which was inoculated into Cos-7 cells, pretreated or treated contemporaneously to the inoculation of the VLP-16 with solutions of increasing concentrations of the said ascorbo-camphorate compound (AC).
In the case of the present tests in this example, pseudovirions were produced at the Université François Rabelais de Tours (France), under the direction of Professor A. Touzet. In brief, the VLP-16 virus pseudo particles or pseudovirions or VLPs were produced by transfection of purified plasmids containing the L1 and L2 structural proteins of the HPV-16 capsomers, and carrying a gene encoding the luciferase marker gene, into cell culture of the 293-cell line. VLP-16s were collected by nuclear lysis, with purification by […] gradient ultracentrifugation.
The positive control for the neutralization assay as disclosed herein used purified VLP-16 inoculum pre-incubated with purified antibodies against HPV (incubation for 1 hour of said VLP nuclear lysate in a solution of anti-HPV antibodies in DMED culture medium). These anti-HPV antibodies served as a positive control in the plaque assay for neutralization of Cos-7 cell infection by VLP-16.
Cells of the Cos-7 cell line were cultured in 96-well microplates, 5% CO2 and 98% H2O, at 37° C. Inoculation of Cos-7 cells was performed as follows: the inoculum mixture was added to the wells containing the confluent Cos-7 sheets, incubated for 72 hours at 37° C., 5% CO2 and 98% H2O, and the supernatant is washed and discarded from the mixture.
Cos-7 cells that may have internalized the luciferase-expressing VLPs were then recovered. The Cos-7 cells were then lysed; then the substrate (luciferin) of the reporter gene (luciferase) was added with dark incubation, for reading using a luminometer.
For each series, the experiments were repeated three times.
To assess pseudovirions infectivity, linear reporter gene expression and to perform titration of pseudovirions solutions, Cos-7 cells were grown (10^4 cells/well) in supplemented DMEM in 96-well plates (Thermo Fisher Scientific) in 5% CO2 at +37° C. until cell confluence was 40-50%. Cells were transduced by replacing the culture medium with fresh unsupplemented DMEM containing serial dilutions of the previously produced PsVs stock solutions and incubated at +37° C. One well containing 1 μg of the pGL4.10[luc2] vector, encoding the luciferase reporter gene, was made as a positive control and another was the cell control for background luminescence (without PsVs or reporter plasmid). After a 3 hours incubation period, 100 μL of growth medium was added to each well and the transduced Cos-7 cells were incubated for 48 h at +37° C. in 5% CO2. Then, the growth medium was removed and the transduced Cos-7 cells were washed with DPBS and incubated in the dark for 15 min in 100 μL of Pierce™ Firefly Luciferase One-Step Glow Assay (Thermo Fisher Scientific). The resulting cell lysates were harvested and transferred to white, 96-well microplates and luciferase enzyme activity was measured using the Luminoskan Ascent brand luminometer (from Thermo Fisher Scientific) after adding 50 μL of luciferin substrate to each well.
Serial dilutions of the stock solution of compound “AC” covering an appropriate concentration range were subjected to an HPV inhibition assay based on VLP-16 pseudovirions.

[4] = test system: Cos-7 cells; experiment: Colorimetric cell viability assay on Cos-7 cells; assay type: cell-based; conditions: 24 hours, estimated; read-out: 50% cytotoxic concentration (CC50)
Procedure: as §1
In a third series of tests, the cytotoxicity of said ascorbo-camphorate on Cos-7 cells was verified. High concentrations of said ascorbo-camphorate may be required to produce an effective formulation. Therefore, the intrinsic toxicity of concentrations of said ascorbo-camphorate up to 5,000 μg/mL was evaluated using a colorimetric cell viability assay. Cos-7 cells were exposed to serial dilutions of the stock solution of said ascorbo-camphorate for 24 hours.
The viability index, or the fraction of viable cells after microbicide treatment relative to the fraction of viable cells exposed to the control condition, was calculated. Cells treated with 0.1% PBS-azide solution were used as a positive control for toxicity. The viability index, or the fraction of viable cells after treatment with the compound “AC” relative to the fraction of viable cells exposed to the natural state, was calculated. […] The 50% cytotoxic concentration (CC50) of said ascorbic camphorate was calculated using a dose-response-inhibition analysis on GraptiPad Prism v5.04 software (from GraphPad Software).

[5] = pseudovirions added simultaneously

## zinc tetra-ascorbo-camphorate [C14]
[1]
  effect on TEER: does not affect the TEER
[2]; lower limit tested 5.15.10-4 μM
  molarity of solutions tolerable by MRC5 cells (upper limit, exclusive value): < 5155 µM
[2]; one-tenth dilution of 0.05155 M stock
  percentage of living cells remaining: greater than or equal to 50%
[3]; contemporaneous addition, 1/10 dilution (515.5 μM)
  inhibition of VLP-16 internalization: Total inhibition
[3]; contemporaneous addition, dilution 1:10^3 (51.5 μM)
  inhibition of VLP-16 penetration into Cos-7 cells: 33%
[3]; pre-treatment of Cos-7 cells
  inhibitory concentration 50 (IC50): 2.8 µg/mL
  IC50: 2.9 µM
[3]; pretreatment, compared to untreated infected controls
  inhibition of penetration of VLP-16 into Cos-7 cells: 30-40%
[3]; pretreatment, dilution 1/10^2 (515.5 μM)
  inhibition of VLP-16 internalization: total inhibition
[3]; [5]
  inhibitory concentration 50 (IC50): 8.1 µg/mL
  IC50: 8.3 µM
[4]
  CC50: > 5150 µM
